In patent US6894073B2, “Use of diterpene compound as a therapeutic agent of inflammation, immune disease or cancer” (Korea Research Institute of Bioscience and Biotechnology, priority 2000, dated 2005):

Key:
[1] = test system: iNOS mRNA; experiment: iNOS mRNA expression, RT-PCR, LPS-stimulated Raw 264.7 cells; format: cell-based, murine; details: 1 μg/ml, LPS 1 μg/ml, 6 hours
Description: (§1) Raw 264.7 murine macrophage cells were treated simultaneously with 1 μg/ml concentrations of LPS and 0.1 μg/ml, 0.3 μg/ml, 1 μg/ml, and 3 μg/ml concentrations of kamebakaurin and were incubated for 6 hours at 37° C. in a 5% CO2 incubator. After isolation of total RNA, reverse transcriptase-polymerase chain reaction (RT-PCR) was performed using said RNA as a template and primer pairs represented by SEQ. ID NO. 3 and 4 for iNOS gene and primer pairs represented by SEQ. ID NO. 5 and 6 for COX-2.

[2] = test system: NF-κB; experiment: NF-κB activation, SEAP reporter in LPS-stimulated RAW-NF-AP cells; format: cell-based, murine; details: Mus musculus
Description: RAW-NF-AP cells, which can be used effectively to detect the NF-κB dependent expression of reporter gene, (Korean Patent Application No. 1999-0006025), were seeded to a 96-well plate at a cell density of 1×10^5 cell/well and were incubated for 3 hours at 37° C. in a 5% CO2 incubator. Thereafter, 1 μg/ml concentration of LPS and 0.03 μg/ml, 0.3 μg/ml, and 3 μg/ml concentrations of kaurane diterpene compounds of the present invention were added to each well and was incubated for 16 hours. After collecting supernatant by centrifugation, the amount of secreted alkaline phosphatase (SEAP) in the culture medium of which expression is regulated by the activation of NF-κB was quantified.

[3] = test system: COX-2 mRNA; experiment: COX-2 mRNA expression, RT-PCR, LPS-stimulated Raw 264.7 cells; format: cell-based, murine
Description: as §1

[4] = test system: Bax; experiment: Bax expression, Western blot, MCF-7 and HT-1080 cells; format: cell-based; details: 1, 5, 10 μg/ml, 20 ng/ml TNF-α 3 hours
Description: (§2) MCF-7 cells and HT-1080 cells were pretreated for 30 minutes with 1 μg/ml, 5 μg/ml, and 10 μg/ml concentrations of four kinds of kaurane diterpene compounds, respectively. After that, 20 ng/ml concentrations of TNF-α were treated for three hours to induce the expression of cIAP-1 and cIAP-2 proteins. Protein extract was prepared from cultured cells using buffer solution for protein extraction consisting of 50 mM Tris-HCL (pH 7.5), 1% Nonidet P40, 150 mM NaCl, 1 mM EDTA, 1 mM phenylmethyl sulfonyl fluoride, […]. 50 μg of protein extract of the control and compound-treated groups was applied to the SDS-polyacrylamide gel electrophoresis. After transferring the proteins into the polyvinylidene difluoride membrane, the membrane was blocked with 5% skim milk for three hours, and were reacted with antibodies against cIAP-1, cIAP-2, Bcl-2, and Bax proteins (Santa Cruz Biochemicals). The membrane was washed with PBS and was reacted with secondary antibody conjugated with horseradish peroxidase. After washing again with PBS, the protein was detected by ECL system (Amersham Pharmacia Biotec).

[5] = test system: cIAP-2; experiment: TNF-α-induced cIAP-2 protein expression, Western blot, MCF-7 and HT-1080 cells; format: cell-based; details: 1, 5, 10 μg/ml, 20 ng/ml TNF-α 3 hours
Description: as §2

[6] = test system: prostaglandin E2; experiment: Inhibition of prostaglandin E2 production in LPS-stimulated Raw 264.7 cells (enzyme immunometric assay); format: cell-based, murine; details: for PGE2: 1 μg/ml LPS, 16 hours
Description: To investigate whether kaurane diterpene compounds obtained in Example 1 can inhibit the production of prostaglandin, which induces inflammatory reaction, the present inventors measured the amount of prostaglandin E2 accumulated in the culture medium of LPS-stimulated murine macrophage cells, which were treated with four kaurane diterpene compounds, kamebanin, kamebacetal A, kamebakaurin, or exisanin A.
In detail, Raw 264.7 cells in DMEM medium were seeded to a 96-well plate at a cell density of 1×10^5 cells/well and were incubated for 18 hours. Cyclooxygenase-1, the constitutive rate-determining enzyme of the prostaglandin synthesis was inactivated by incubating for 3 hrs with 500 μM of aspirin and each well was washed two times with PBS (phosphate-buffered saline). To each well were added 1 μg/ml of LPS and 3 μg/ml, 0.3 μg/ml, and 0.03 μg/ml concentrations of kaurane diterpene compounds of the present invention and was incubated for 16 hours. After collecting supernatant by centrifugation, the amount of prostaglandin in the culture medium was quantified by enzyme immunometric assay.

[7] = test system: cIAP-1; experiment: TNF-α-induced cIAP-1 protein expression, Western blot, MCF-7 and HT-1080 cells; format: cell-based; details: 1, 5, 10 μg/ml, 20 ng/ml TNF-α 3 hours
Description: as §2

[8] = test system: iNOS protein; experiment: iNOS protein expression, Western blot, LPS-stimulated Raw 264.7 cells; format: cell-based, murine; details: LPS 1 μg/ml, 18 hours
Description: Raw 264.7 murine macrophage cells were treated simultaneously with 1 μg/ml concentrations of LPS and 0.1 μg/ml, 0.3 μg/ml, 1 μg/ml, and 3 μg/ml concentrations of kamebakaurin and were incubated for 18 hours at 37° C. in a 5% CO2 incubator. After preparing total cell lysates from cultured cells using buffer solution for protein extraction of the Example <7-2>, the expression pattern of proteins was assessed by Western blot analysis.

[9] = test system: TNF-α; experiment: Inhibition of TNF-α production in LPS-stimulated Raw 264.7 cells (enzyme immunometric assay); format: cell-based, murine; details: for TNF-α: 1 μg/ml LPS, 16 hours
Description: To investigate whether kaurane diterpene compounds obtained in Example 1 can inhibit effectively the production of tumor necrosis factor-α (TNF-α), one of the inflammatory mediator, which confers cytotoxic effect and induces the production of prostaglandin and cytokines, the present inventors measured the amount of TNF-α accumulated in the culture medium of LPS-stimulated murine macrophage cells, which were treated with four kaurane diterpene compounds, kamebanin, kamebacetal A, kamebakaurin, or exisanin A.
In detail, Raw 264.7 cells in DMEM medium were seeded to a 96-well plate at a cell density of 1×10^5 cells/well and were incubated for 3 hours at 37° C. in a 5% CO2 incubator. To each well were added 1 μg/ml of LPS and 3 μg/ml, 0.3 μg/ml, and 0.03 μg/ml concentrations of kaurane diterpene compounds of the present invention and was incubated for 16 hours. After collecting supernatant by centrifugation, the amount of TNF-α in the culture medium was quantified by enzyme immunometric assay.

[10] = Mus musculus, RAW264.7, LPS-stimulated Raw 264.7 cells

C=C1C(=O)[C@@]23[C@H](O)C[C@@H]4C(C)(C)CC[C@H](O)[C@@]4(CO)[C@@H]2CC[C@@H]1[C@H]3O [Kamebakaurin, kamebakaurin]
Expression of iNOS mRNA [1]: completely suppressed | inhibition at 0.03 µg/mL ([2]; 0.03 μg/ml compound, 1 μg/ml LPS, 16 hours): 2.5% | inhibition at 0.3 µg/mL ([2]; 0.3 μg/ml compound, 1 μg/ml LPS, 16 hours): 33.1% | inhibition at 3 µg/mL ([2]; 3 μg/ml compound, 1 μg/ml LPS, 16 hours): 96.4% | IC50 ([2]; RAW-NF-AP cells, LPS): 1.11 µM | Expression of COX mRNA ([3]; 1 μg/ml): inhibited | Expression of COX-2 mRNA ([3]; 3 μg/ml, LPS 1 μg/ml, 6 hours): completely suppressed | Expression of Bax [4]: not inhibited | Expression of cIAP-2 protein induced by TNF-α [5]: inhibited | PGE2 ([6]; 0.03 μg/ml compound): 10.7 ± 1.2 ng/mL | PGE2 ([6]; 0.3 μg/ml compound): 9.2 ± 0.2 ng/mL | Inhibition rate (%) of prostaglandin E2 production ([6]; 3 μg/ml compound): 95.1% | PGE2 ([6]; 3 μg/ml compound): 1.8 ± 0.4 ng/mL | inhibition at 0.03 µg/mL ([6]; Mus musculus, RAW264.7, 0.03 μg/ml compound, read-out: Inhibition rate (%) of prostaglandin E2 production): -7.1% | inhibition at 0.3 µg/mL ([6]; Mus musculus, RAW264.7, 0.3 μg/ml compound, read-out: Inhibition rate (%) of prostaglandin E2 production): 9.7% | inhibition at 3 µg/mL ([6]; Mus musculus, RAW264.7, 3 μg/ml compound, read-out: Inhibition rate (%) of prostaglandin E2 production): ~95% | IC50 [6, 10]: 2.63 µM | Expression of cIAP-1 protein induced by TNF-α [7]: inhibited | Expression of iNOS protein ([8]; 3 μg/ml): completely suppressed | Expression of iNOS protein ([8]; 0.1-3 μg/ml): suppressed dose-dependently | TNF-α ([9]; 0.03 μg/ml compound): 1407.0 ± 255.6 pg/mL | TNF-α ([9]; 0.3 μg/ml compound): 654.4 ± 29.4 pg/mL | TNF-α ([9]; 3 μg/ml compound): 29.6 ± 5.3 pg/mL | inhibition at 0.03 µg/mL ([9]; Mus musculus, RAW264.7, 0.03 μg/ml compound, read-out: Inhibition rate (%) of TNF-α production): 15.9% | inhibition at 0.3 µg/mL ([9]; Mus musculus, RAW264.7, 0.3 μg/ml compound, read-out: Inhibition rate (%) of TNF-α production): 61.3% | inhibition at 3 µg/mL ([9]; Mus musculus, RAW264.7, 3 μg/ml compound, read-out: Inhibition rate (%) of TNF-α production): 99.2% | IC50 [9, 10]: 0.53 µM
